Test results taken from patent US3979511A, “Inhibitors of reverse transcriptase enzymes” (Abbott Laboratories, priority 1974, dated 1976).

How the values were obtained:
[1] = target: T1, reverse transcriptase of Rous sarcoma virus (Rous sarcoma virus - Prague C, UniProt P03354); assay: Inhibition of reverse transcriptase activity in RSV particles (3H-thymidine triphosphate incorporation); type: biochemical; details: for inhibition at 400 µg/mL: 400 μg/ml., read-out: Percent Inhibition
T1 construct: alpha/beta heterodimer cut from Gag-Pol polyprotein; 3H-TTP incorporation
T1 sequence (P03354 709-1567): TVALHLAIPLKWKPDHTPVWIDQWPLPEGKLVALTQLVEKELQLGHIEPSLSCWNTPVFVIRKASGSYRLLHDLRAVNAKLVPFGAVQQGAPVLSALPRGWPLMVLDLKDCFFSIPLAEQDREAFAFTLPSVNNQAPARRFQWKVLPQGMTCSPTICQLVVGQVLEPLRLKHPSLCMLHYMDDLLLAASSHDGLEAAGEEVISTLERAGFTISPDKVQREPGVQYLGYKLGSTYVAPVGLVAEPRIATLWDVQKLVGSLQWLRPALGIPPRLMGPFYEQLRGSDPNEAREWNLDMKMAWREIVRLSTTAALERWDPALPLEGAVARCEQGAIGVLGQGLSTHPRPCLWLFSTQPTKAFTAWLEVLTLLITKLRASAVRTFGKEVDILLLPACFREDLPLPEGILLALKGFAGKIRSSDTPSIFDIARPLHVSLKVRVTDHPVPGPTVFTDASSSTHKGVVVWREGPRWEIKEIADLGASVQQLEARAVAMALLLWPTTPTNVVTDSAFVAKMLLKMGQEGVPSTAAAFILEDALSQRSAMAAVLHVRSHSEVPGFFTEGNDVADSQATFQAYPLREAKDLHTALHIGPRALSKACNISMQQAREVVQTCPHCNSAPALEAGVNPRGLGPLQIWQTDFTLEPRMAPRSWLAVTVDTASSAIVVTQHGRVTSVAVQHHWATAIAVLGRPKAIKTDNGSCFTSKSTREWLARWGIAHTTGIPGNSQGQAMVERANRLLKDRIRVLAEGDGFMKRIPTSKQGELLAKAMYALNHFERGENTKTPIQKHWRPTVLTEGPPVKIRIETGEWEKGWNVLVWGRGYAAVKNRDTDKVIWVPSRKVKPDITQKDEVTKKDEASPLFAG
Description: Inhibition was directly related to drug concentration. […] Reverse transcriptase activities were measured from the incorporation of ^3 H-thymidine triphosphate into trichloroacetic acid insoluble counts according to a published method (Nature, 227, 563 (1970). The drug was dissolved in dimethylsulfoxide at a concentration of 10 mg./ml. ##SPC3##
Degrees of the inhibition are listed below in Table 1.

Rous sarcoma virus [2] = assay: Mortality of chicks infected intra-abdominally with Rous sarcoma virus; type: in vivo, chickens; details: for Probability (Fisher's exact probability for proportions): Virus + Drug I vs Virus; for Alive / Dead: Virus + Drug I, 200 mg./kg. by gavage every other day, 25 birds per group
From the text: (§1) To test the effectiveness of the present compounds, 12-day-old Cofal negative chicks were used. The chicks were purchased from SPAFA as 8-day-old embryonated eggs for the tests and comparison of the effectiveness of the inhibitors of the present invention. The chicks were divided into four groups of 25 birds per group:
(§2) Group 1 - Drug I control (9-0-methyloximinyl erythromycin A;
Group 2 - Drug I + Rous sarcoma virus (RSV);
Group 3 - Rous sarcoma virus (infection control);
Group 4 - Normal control (sham media)
(§3) The medication with the virus and drug combinations was started by gavage two days before the chicks were infected with the virus. The chickens treated with Drug I, 9-0-methyloximinyl erythromycin A, received 200 mg./kg. every other day for the entire 35 days of the experiment. Each week the chickens were weighed and the drug level was adjusted to accommodate the new weight.
On the third day the chickens in Groups 2 and 3 were infected intra-abdominally with Rous sarcoma virus (RSV). The inoculum received by each bird was 0.2 ml. and contained approximately 100,000 viral particles. Group 4 received a sham inoculation of 0.2 ml. of sterile tissue culture media.
(§4) The chickens were observed daily for the 35 days that the experiment was allowed to continue.
(§5) On the last day, the 35th day, all surviving chickens were sacrificed, weighed and autopsied.
The results of the experiment are provided in Table 3 which provides the following results: "Statistical Evaluation of Mortality of the Chickens".

[3] = Drug control group: mortality of uninfected chicks given drug; type: in vivo, chickens; details: Drug I control, 200 mg./kg. by gavage every other day, 25 birds
From the text: as §1, §2, §3, §4, §5

Rous sarcoma virus [4] = assay: Blocking of transformation (focus formation) of chick embryonic fibroblasts by Rous sarcoma virus in tissue culture; type: cell-based
Description: In tissue culture, the effect of 9-0-methyloximinyl erythromycin A on the blocking of transformation of chick embryonic fibroblasts by Rous sarcoma virus is shown in Table 2. […] The assay was carried out according to a published method (J. Gen. Virol. I, 85 (1970).

[5] = period 4 after infection (period = 6 days)
[6] = period 5 after infection (period = 6 days)
[7] = period 6 after infection (period = 6 days)

Question: For CC[C@H]1OC(=O)[C@H](C)[C@@H](O[C@H]2C[C@@](C)(OC)[C@@H](O)[C@H](C)O2)[C@H](C)[C@@H](O[C@@H]2O[C@H](C)C[C@H](N(C)C)[C@H]2O)[C@](C)(O)C[C@@H](C)C(=NOCc2ccc(Cl)c(Cl)c2)[C@H](C)[C@@H](O)[C@H]1C [9-O-(3,4-dichlorobenzyloximinyl) erythromycin B], which inhibition at 400 µg/mL [1] is on record?
Answer: Its inhibition at 400 µg/mL is 69%.

Question: For CCON=C1[C@H](C)C[C@@](C)(O)[C@H](O[C@@H]2O[C@H](C)C[C@H](N(C)C)[C@H]2O)[C@@H](C)[C@H](O[C@H]2C[C@@](C)(OC)[C@@H](O)[C@H](C)O2)[C@@H](C)C(=O)O[C@H](CC)[C@@](C)(O)[C@H](O)[C@H]1C [9-O-ethyloximinyl erythromycin A], which inhibition at 400 µg/mL [1] is on record?
Answer: Its inhibition at 400 µg/mL is 52%.

Question: For CC[C@H]1OC(=O)[C@H](C)[C@@H](O[C@H]2C[C@@](C)(OC)[C@@H](O)[C@H](C)O2)[C@H](C)[C@@H](O[C@@H]2O[C@H](C)C[C@H](N(C)C)[C@H]2O)[C@](C)(O)C[C@@H](C)C(=NOC)[C@H](C)[C@@H](O)[C@]1(C)O [9-O-methyloximinyl erythromycin A], which “tumors in survivors at sacrifice and autopsy” value (Rous sarcoma virus [2]; RSV-infected birds that received Drug I 200 mg./kg. every other day, 35th day) is on record?
Answer: The value was “had tumors in evidence”.

Question: And the “Probability (Fisher's exact probability for proportions)” value (“Probability” below) (Rous sarcoma virus [2]; period 4 after infection)?
Answer: Its value is “.02”.

Question: And the “Probability” value (Rous sarcoma virus [2]; period 5 after infection)?
Answer: Its value is “.006”.

Question: And the “Probability” value (Rous sarcoma virus [2]; period 6 after infection)?
Answer: The value was “.036”.

Question: What about the Alive (Rous sarcoma virus [2]; [5]) of the same molecule?
Answer: The Alive was 18.

Question: What about the Dead (Rous sarcoma virus [2]; [5]) of the same molecule?
Answer: The Dead was 7.

Question: What about the Alive (Rous sarcoma virus [2]; [6]) of the same molecule?
Answer: Its Alive is 13.

Question: What about the Dead (Rous sarcoma virus [2]; [6]) of the same molecule?
Answer: The Dead was 12.

Question: And the Alive (Rous sarcoma virus [2]; [7])?
Answer: The Alive was 8.

Question: What about the Dead (Rous sarcoma virus [2]; [7]) of the same molecule?
Answer: The Dead was 17.

Question: What about the Alive ([3]; period 4 (period = 6 days)) of the same molecule?
Answer: The Alive was 25.

Question: What about the Dead ([3]; period 4 (period = 6 days)) of the same molecule?
Answer: Its Dead is 0.

Question: And the Alive ([3]; period 5 (period = 6 days))?
Answer: Its Alive is 25.

Question: What about the Dead ([3]; period 5 (period = 6 days)) of the same molecule?
Answer: Its Dead is 0.

Question: And the Alive ([3]; period 6 (period = 6 days))?
Answer: The Alive was 25.

Question: And the Dead ([3]; period 6 (period = 6 days))?
Answer: Its Dead is 0.

Question: And the inhibition at 1 µg/mL (Rous sarcoma virus [4]; Rous sarcoma virus, Fibroblast, Drug Concentration 1 μg/ml)?
Answer: The inhibition at 1 µg/mL was 39%.

Question: And the inhibition at 5 µg/mL (Rous sarcoma virus [4]; Rous sarcoma virus, Fibroblast, Drug Concentration 5 μg/ml)?
Answer: Its inhibition at 5 µg/mL is 53%.

Question: What about the inhibition at 10 µg/mL (Rous sarcoma virus [4]; Rous sarcoma virus, Fibroblast, Drug Concentration 10 μg/ml) of the same molecule?
Answer: The inhibition at 10 µg/mL was 95%.

Question: What about the “inhibition of focus formation” value (Rous sarcoma virus [4]; drug levels of 5-10 μg/ml) of the same molecule?
Answer: Its value is “at least 50%”.

Question: What about the inhibition at 400 µg/mL [1] of the same molecule?
Answer: Its inhibition at 400 µg/mL is 57%.

Question: What about the IC50 ([1]; RSV particles, drug dissolved in dimethylsulfoxide, read-out: Fifty percent inhibition of reverse transcriptase activity (converted)) of the same molecule?
Answer: Its IC50 is ~459 µM.

Question: Which inhibition at 400 µg/mL [1] does the source give for CCCON=C1[C@H](C)C[C@@](C)(O)[C@H](O[C@@H]2O[C@H](C)C[C@H](N(C)C)[C@H]2O)[C@@H](C)[C@H](O[C@H]2C[C@@](C)(OC)[C@@H](O)[C@H](C)O2)[C@@H](C)C(=O)O[C@H](CC)[C@@](C)(O)[C@H](O)[C@H]1C [9-O-propyloximinyl erythromycin A] here?
Answer: The inhibition at 400 µg/mL was 47%.
